Source: the CheMixHub viscosity set

Assay: xn = mol fraction of the nth substance listed

CNCCO + CS(C)=O
viscosity [mPa·s], 101.3 kPa
Settings | x1 = 0.1038 | x1 = 0.2066 | x1 = 0.3084 | x1 = 0.4095 | x1 = 0.5101 | x1 = 0.6095 | x1 = 0.7084 | x1 = 0.8064 | x1 = 0.9035
293.15 K | 2.286 | 2.433 | 2.768 | 3.144 | 3.804 | 4.512 | 5.755 | 7.432 | 9.786
298.15 K | 2.054 | 2.173 | 2.45 | 2.754 | 3.293 | 3.852 | 4.836 | 6.143 | 7.947
303.15 K | 1.858 | 1.956 | 2.186 | 2.435 | 2.877 | 3.327 | 4.116 | 5.151 | 6.549
308.15 K | 1.691 | 1.771 | 1.964 | 2.168 | 2.537 | 2.905 | 3.542 | 4.368 | 5.476
313.15 K | 1.547 | 1.613 | 1.776 | 1.946 | 2.254 | 2.555 | 3.077 | 3.745 | 4.627
318.15 K | 1.419 | 1.481 | 1.615 | 1.755 | 2.016 | 2.264 | 2.697 | 3.241 | 3.954
323.15 K | 1.309 | 1.361 | 1.469 | 1.594 | 1.815 | 2.044 | 2.383 | 2.83 | 3.41

CC(C)CCO + CC(C)CO
viscosity [mPa·s], 101 kPa
Settings | x1 = 0.2 | x1 = 0.4 | x1 = 0.6 | x1 = 0.8
293.15 K | 4.048 | 4.099 | 4.163 | 4.241
313.15 K | 2.178 | 2.22 | 2.27 | 2.326

CCOCCO + CCCCCO
298.15 K, 101 kPa
Settings | viscosity [mPa·s]
x1 = 0.098 | 3.167
x1 = 0.1965 | 2.864
x1 = 0.2954 | 2.619
x1 = 0.3947 | 2.431
x1 = 0.4945 | 2.283
x1 = 0.5947 | 2.178
x1 = 0.6953 | 2.099
x1 = 0.7964 | 2.027
x1 = 0.898 | 1.954

CC(C)CCO + CCO
viscosity [mPa·s]
Settings | x1 = 0.0558 | x1 = 0.1156 | x1 = 0.1843 | x1 = 0.2587 | x1 = 0.3588 | x1 = 0.4457 | x1 = 0.5523 | x1 = 0.6771 | x1 = 0.8255 | x2 = 0.5
298.15 K, 100 kPa | 1.291 | 1.591 | 1.919 | 2.235 | 2.576 | 2.831 | 3.086 | 3.312 | 3.463 | –
303.15 K, 100 kPa | 1.175 | 1.471 | 1.806 | 2.029 | 2.353 | 2.549 | 2.756 | 2.917 | 2.945 | –
308.15 K, 100 kPa | 1.236 | 1.672 | 2.049 | 2.279 | 2.559 | 2.699 | 2.763 | 2.814 | 2.815 | –
308.15 K, 101 kPa | – | – | – | – | – | – | – | – | – | 1.747
313.15 K, 101 kPa | – | – | – | – | – | – | – | – | – | 1.519
318.15 K, 101 kPa | – | – | – | – | – | – | – | – | – | 1.372

CCCC[P+](CCCC)(CCCC)CCCC.[Br-] + O
Settings | viscosity [mPa·s]
308.15 K, 101 kPa, x1 = 0.08254 | 6.085

CC(C)CCO + COCCO
303.15 K, 101.3 kPa
Settings | viscosity [mPa·s]
x2 = 0.1536 | 2.477
x2 = 0.2181 | 2.305
x2 = 0.3068 | 2.095
x2 = 0.3756 | 1.955
x2 = 0.4802 | 1.772
x2 = 0.6881 | 1.512
x2 = 0.7438 | 1.47
x2 = 0.8293 | 1.413
x2 = 0.9356 | 1.38

CNC(C)=O + CCCCN
308.15 K, 101 kPa
Settings | viscosity [mPa·s]
x1 = 0.0335 | 0.414
x1 = 0.1849 | 0.5985
x1 = 0.3822 | 0.9135
x1 = 0.4385 | 1.049
x1 = 0.5671 | 1.387
x1 = 0.6888 | 1.829
x1 = 0.7756 | 2.15
x1 = 0.8792 | 2.675
x1 = 0.9781 | 3.172

CC(C)CCO + CC(C)CC(C)(C)C
298.15 K, 101 kPa
Settings | viscosity [mPa·s]
x2 = 0.0685 | 3.063
x2 = 0.1336 | 2.496
x2 = 0.1409 | 2.428
x2 = 0.2215 | 1.908
x2 = 0.2866 | 1.576
x2 = 0.311 | 1.471
x2 = 0.352 | 1.326
x2 = 0.4007 | 1.178
x2 = 0.4038 | 1.175
x2 = 0.4505 | 1.051
x2 = 0.4937 | 0.967
x2 = 0.5321 | 0.896
x2 = 0.6132 | 0.772
x2 = 0.6488 | 0.723
x2 = 0.7255 | 0.642
x2 = 0.782 | 0.595
x2 = 0.818 | 0.564
x2 = 0.857 | 0.544
x2 = 0.9105 | 0.512
x2 = 0.9545 | 0.494

CNC(C)=O + O
viscosity [mPa·s]
Settings | 303.18 K | 308.15 K | 313.15 K | 318.15 K
101 kPa, x2 = 0.0402 | 3.71 | – | – | –
101 kPa, x2 = 0.1032 | 3.81 | – | – | –
101 kPa, x2 = 0.2124 | 4.02 | – | – | –
101 kPa, x2 = 0.3814 | 4.33 | – | – | –
101 kPa, x2 = 0.455 | 4.42 | – | – | –
101 kPa, x2 = 0.5528 | 4.37 | – | – | –
101 kPa, x2 = 0.7092 | 3.7 | – | – | –
101 kPa, x2 = 0.8121 | 2.89 | – | – | –
101.33 kPa, x1 = 0.0301 | – | 0.997 | 0.893 | 0.812
101.33 kPa, x1 = 0.06 | – | 1.293 | 1.137 | 1.026
101.33 kPa, x1 = 0.1002 | – | 1.693 | 1.465 | 1.301
101.33 kPa, x1 = 0.15 | – | 2.24 | 1.902 | 1.651
101.33 kPa, x1 = 0.1999 | – | 2.766 | 2.326 | 2.001
101.33 kPa, x1 = 0.245 | – | 3.108 | 2.626 | 2.257
101.33 kPa, x1 = 0.3006 | – | 3.402 | 2.882 | 2.483
101.33 kPa, x1 = 0.3502 | – | 3.597 | 3.063 | 2.646
101.33 kPa, x1 = 0.4012 | – | 3.748 | 3.198 | 2.769
101.33 kPa, x1 = 0.4501 | – | 3.852 | 3.3 | 2.859
101.33 kPa, x1 = 0.5 | – | 3.921 | 3.37 | 2.914
101.33 kPa, x1 = 0.5502 | – | 3.942 | 3.398 | 2.938
101.33 kPa, x1 = 0.6018 | – | 3.906 | 3.382 | 2.928
101.33 kPa, x1 = 0.655 | – | 3.825 | 3.327 | 2.894
101.33 kPa, x1 = 0.7019 | – | 3.765 | 3.281 | 2.869
101.33 kPa, x1 = 0.7551 | – | 3.688 | 3.226 | 2.832
101.33 kPa, x1 = 0.807 | – | 3.606 | 3.167 | 2.797
101.33 kPa, x1 = 0.845 | – | 3.554 | 3.13 | 2.768
101.33 kPa, x1 = 0.9015 | – | 3.495 | 3.077 | 2.733
101.33 kPa, x1 = 0.95 | – | 3.44 | 3.044 | 2.703

CC12CCC(CC1=O)C2(C)C (configuration not stated) + CCCCCCCCCCO
101.33 kPa, x2 = 0.7
Settings | viscosity [mPa·s]
298.15 K | 12.14
303.15 K | 10.24
308.05 K | 8.898
313.15 K | 7.817
318.05 K | 6.806
323.05 K | 5.915

Cc1ccc(NC(=O)NCCCCCCCCCCCCCCC(C)C)cc1NC(=O)NCCCCCCCCCCCCCCC(C)C + CCCCC
Settings | viscosity [mPa·s]
293.15 K, 100 kPa, x1 = 0.0001 | 2

CC(C)CCO + CCOCCO
313.15 K, 101 kPa
Settings | viscosity [mPa·s]
x1 = 0.102 | 1.385
x1 = 0.2036 | 1.425
x1 = 0.8035 | 1.945
